From PMC12030301, “Caffeic Acid Phenethyl Ester (CAPE) Inhibits Arginase Activity and Growth of Leishmania amazonensis Promastigotes and Intracellular Amastigotes” (Pathogens, 2025)

Target: T1, arginase
T1 construct: purified recombinant arginase
Test: enzyme inhibition kinetics with purified recombinant arginase; Dixon and Cornish-Bowden plots (IC50 […])
Format: biochemical, Leishmania amazonensis

Structure (SMILES): O=C(/C=C/c1ccc(O)c(O)c1)OCCc1ccccc1 [CAPE, Caffeic acid phenethyl ester]
- Ki: 1510 ± 40 nM
